# Literature values in patent US20170143768A1, “OINTMENT FOR THE TREATMENT OF HEMORRHOIDAL DISEASE” (Global Treat SRL, priority 2014, published 2017).
smiles,measurement,value
CC12CCC(CC1=O)C2(C)C (stereo not shown) [camphor],solubility in water,water-soluble
